The record followed here is PubChem BioAssay (NCI).

Values joined by “and” are separate entries in the source; they are usually repeats but may differ in a detail not shown here. Equal entries are not always repeated.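 In this assay, cells in 96-well plates receive the compound at five concentrations for 48 hours. Endpoints are linearly interpolated between the surrounding concentrations. The concentration for 50% growth inhibition is given as GI50. TGI marks complete inhibition of growth.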 Where only a bound is given, the exact number is not on record here.

Holding throughout (assay): NCI anticancer screen, dose series, 48 h
Assay [1] concerns A549 NSCLC.
Assay [2] has as its system SW-620 colon.
The test system of assay [3] is RXF 393 renal.
The test system of assay [4] is OVCAR-5 ovarian.
In assay [5] the test system is M14 melanoma.
Assay [6] deals with EKVX NSCLC.
The test system of assay [7] is U251 CNS.
The test system of assay [8] is SF-295 CNS.

Regarding `COc1cc(F)c(F)c(Nc2ccc(I)cc2F)c1NS(=O)(=O)C1(CC(O)CO)CC1` (stereo not drawn), the GI50 in assay [1] was 15.4 µM; in assay [2], 13.6 µM; in assay [3], 5.78 µM; in assay [4], 10.2 µM; in assay [5], 3.04 µM; in assay [6], 13.4 µM. Besides, the GI50 in assay [7] is 15.2 µM; in assay [8] it was 15 µM. Besides, the TGI is greater than 64.9 µM in assay [1]; greater than 59.5 µM in assay [2]; 19.7 µM in assay [3]; 30.1 µM in assay [4]; 15.5 µM in assay [5]; 57.2 µM in assay [6]. Besides, the TGI in assay [7] turned out to be 39.9 µM; in assay [8], 32.5 µM.

With `COC(=O)c1sc(-n2cnc3cc(OC)c(OC)cc32)cc1OCc1ccccc1C(F)(F)F`, the GI50 in assay [1] is greater than 25 µM; in assay [2], greater than 25 µM; in assay [3], 7.45 µM; in assay [4], greater than 25 µM; in assay [5], greater than 25 µM; in assay [6], greater than 25 µM. The GI50 in assay [7] was 10.8 µM; in assay [8], greater than 23.6 µM. Moreover, the TGI in assay [1], in assay [2], in assay [3], in assay [4], in assay [5] and in assay [6] was greater than 25 µM each time. For the same molecule, the TGI in assay [7] and in assay [8] was greater than 25 µM each time.

Consider `CN1CCN(Cc2ccc(NC(=O)c3cncc(C#Cc4c(N)ncc5ccccc45)c3)cc2C(F)(F)F)CC1`, for which the GI50 in assay [1] was 0.668 µM; in assay [2] it was 0.185 µM; in assay [3], 0.708 µM; in assay [4] it was 0.658 µM; in assay [5], 0.203 µM; in assay [6], 0.572 µM. The results for the GI50 in assay [7] and in assay [8] were 0.686 µM and 0.786 µM, respectively. The TGI in assay [1] came out at 1.45 µM; in assay [2], 0.72 µM; in assay [3], 1.39 µM; in assay [4] it was 1.45 µM; in assay [5], 0.885 µM; in assay [6] it was 1.26 µM. Further, the TGI was found to be 1.41 µM in assay [7] and 1.57 µM in assay [8].

Take `O=C(Nc1c[nH]c(=O)[nH]c1=O)Oc1ccccc1`: the TGI in assay [1], in assay [2], in assay [3], in assay [4], in assay [5] and in assay [6] was greater than 100 µM each time. Besides, the TGI in assay [7] and in assay [8] was greater than 100 µM each time.

In the case of `Nc1nc(SCC#CCCl)c2[nH]cnc2n1`, the GI50 in assay [1] was 7.04 µM; in assay [2], 4.1 µM; in assay [3], 3.05 µM; in assay [4] it was 4.58 µM; in assay [5] it was 6.58 µM; in assay [6], 3.22 µM. Moreover, the GI50 is 2.97 µM in assay [7] and 3.65 µM in assay [8]. For the same molecule, the TGI in assay [1] worked out at 19.8 µM; in assay [2], 17.5 µM; in assay [3], 14.9 µM; in assay [4] it was 17.7 µM; in assay [5], 20.9 µM; in assay [6], 15.4 µM. Further, the TGI in assay [7] worked out at 7.79 µM; in assay [8], 17.1 µM.

As to `CCc1ccc([OH2+])c(C(=O)[O-])c1.CCc1ccc([OH2+])c(C(=O)[O-])c1.CCc1ccc([OH2+])c(C(=O)[O-])c1.CCc1ccc([OH2+])c(C(=O)[O-])c1.[Cu+2].[Cu+2]`, the GI50 in assay [1] was 38.6 µM; in assay [2], greater than 100 µM; in assay [3] it was greater than 46.8 µM; in assay [4] it was 32.3 µM; in assay [5], greater than 100 µM; in assay [6], greater than 100 µM. For the same molecule, the GI50 in assay [7] is greater than 59.9 µM; in assay [8], 50.8 µM. In addition, the TGI in assay [1] is greater than 100 µM; in assay [2], greater than 100 µM; in assay [3] it was greater than 94.5 µM; in assay [4] it was 70.2 µM; in assay [5] it was greater than 100 µM; in assay [6], greater than 100 µM. Besides, the TGI in assay [7] and in assay [8] was greater than 100 µM in each case.

Turning to `O=C(NOCCO)c1ccc2cncn2c1Nc1ccc(I)cc1F`, the GI50 in assay [1] is 0.143 µM and 0.132 µM; in assay [2], 0.00386 µM and < 0.01 µM; in assay [3], 0.188 µM and 0.303 µM; in assay [4] it was 0.00313 µM and < 0.01 µM; in assay [5] it was 0.00286 µM and < 0.01 µM; in assay [6], 0.0629 µM. For the same molecule, the results for the GI50 in assay [7] and in assay [8] were 0.722 µM and greater than 56.5 µM, respectively. Besides, the TGI in assay [1] is greater than 100 µM; in assay [2], greater than 100 µM; in assay [3], > 10 µM and 21.4 µM; in assay [4], greater than 100 µM; in assay [6], greater than 10 µM; in assay [7], greater than 90.1 µM. Besides, in assay [8], the TGI is greater than 100 µM.

Consider `CN(N=O)c1ccc(/C=C/c2ccnc3ccccc23)cc1`, for which the TGI in assay [1], in assay [2], in assay [3], in assay [4], in assay [5] and in assay [6] was greater than 100 µM in each case. The TGI in assay [7] and in assay [8] was greater than 100 µM in each case.

On to `COC(=O)[C@]12CC[C@@H](C)[C@H](C)[C@@H]1C1=CC[C@@H]3[C@@]4(C)C[C@@H](OC(C)=O)[C@H](OC(C)=O)[C@@](C)(COC(C)=O)[C@@H]4[C@H](O)C[C@@]3(C)[C@]1(C)CC2`, for which the GI50 is 2.06 µM in assay [1]; 0.892 µM in assay [2]; 6.88 µM in assay [3]; 7.04 µM in assay [4]; 1.28 µM in assay [5]; 2.14 µM in assay [6]. For the same molecule, the GI50 in assay [7] is 0.86 µM; in assay [8] it was 2.84 µM. Further, the TGI in assay [1] is greater than 100 µM; in assay [2] it was greater than 100 µM; in assay [3], 61.4 µM; in assay [4], greater than 100 µM; in assay [5], greater than 100 µM; in assay [6], greater than 100 µM. The TGI in assay [7] and in assay [8] was greater than 100 µM in each case.

In the case of `COc1cc(/C=N/NC(=O)c2cnn3c2NC(c2ccccc2)C3)ccc1OCc1ccccc1` (stereo not drawn), the GI50 in assay [1] is 1.17 µM; in assay [2] it was 0.569 µM; in assay [3] it was 1.29 µM; in assay [4] it was 2.11 µM; in assay [5], 0.695 µM; in assay [6], 1.48 µM. The GI50 in assay [7] was 1.14 µM; in assay [8] it was 0.453 µM. The TGI was found to be 3.75 µM in assay [1]; 2.76 µM in assay [2]; 3.96 µM in assay [3]; 10.6 µM in assay [4]; 4.45 µM in assay [5]; 12.4 µM in assay [6]. Moreover, the TGI in assay [7] was 3.07 µM; in assay [8] it was 2.11 µM.
